{"source": "patent US11674182B2", "about": "“Biomarker for HER2-positive cancer and anti-HER2 therapy and applications thereof” (INDUSTRY-UNIVERSITY COOPERATION FOUNDATION HANYANG …, priority 2017, dated 2023)", "key": {"ADAM10": {"biological_target": "T1, ADAM10 (Homo sapiens, UniProt O14672)", "T1 sequence (O14672 214-748)": "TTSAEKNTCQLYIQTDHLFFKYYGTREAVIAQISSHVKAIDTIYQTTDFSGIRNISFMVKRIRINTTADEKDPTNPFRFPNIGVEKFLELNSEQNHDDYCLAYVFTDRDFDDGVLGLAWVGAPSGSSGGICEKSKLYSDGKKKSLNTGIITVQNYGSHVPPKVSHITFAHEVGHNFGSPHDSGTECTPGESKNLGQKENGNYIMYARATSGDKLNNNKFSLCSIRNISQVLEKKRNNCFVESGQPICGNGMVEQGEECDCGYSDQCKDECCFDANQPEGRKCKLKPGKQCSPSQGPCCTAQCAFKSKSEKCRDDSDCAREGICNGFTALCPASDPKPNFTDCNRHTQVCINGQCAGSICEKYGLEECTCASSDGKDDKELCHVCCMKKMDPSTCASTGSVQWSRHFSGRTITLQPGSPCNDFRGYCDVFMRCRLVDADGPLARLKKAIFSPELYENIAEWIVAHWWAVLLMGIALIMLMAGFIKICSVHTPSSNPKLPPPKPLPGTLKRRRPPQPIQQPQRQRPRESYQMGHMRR", "settings": "cited from earlier work"}, "BT474 cells": {"system": "BT474 cells", "assay": "Cell viability test (SRB) and colony formation assay in BT474 cells", "type": "cell-based, human", "settings": "MEL-18-depleted BT474 cells; 1 μM GW280264 with trastuzumab, 5 days", "protocol": "An in vitro toxicity test analysis kit (Sulforhodamine B based, TOX6) was purchased from Sigma-Aldrich (St. Louis, Mo., USA), and used according to the manufacturer's protocols. […] After five days, the cells were fixed by layering a TCA solution in the medium, and incubated at 4° C. for 1 hour. The fixed cells were washed with water several times, and stained with a 0.4% sulforhodamine B solution for 30 minutes. Subsequently, the stained cells were washed with a 1% acetic acid solution until remaining salts were no longer observed, and the incorporated dye was dissolved in a 10 mM Tris solution while gently stirring. The prepared plate was detected using a microplate reader at 490 nm.\nAfter 2 weeks, the cells were fixed with a 4% formaldehyde solution for 5 minutes, washed with PBS, and stained with 0.02% crystal violet (C0775, Sigma-Aldrich) for 1 to 2 hours at room temperature and then washed again. The prepared plates were dried thoroughly, and the experiment was carried out."}, "ErbB-PI3K-AKT signaling": {"system": "ErbB-PI3K-AKT signaling", "assay": "Immunoblotting / ELISA of ErbB signaling and ErbB ligand secretion in BT474 cells", "type": "cell-based, human", "settings": "MEL-18-knockdown BT474 cells; 1 μM GW280264, 24 hours", "protocol": "Cells were lysed in RIPA buffer, and the lysates were subjected to immunoblotting and immunoprecipitation as described in [M. H. Cho et al, Nat Commun 6, 7821(2015)] (60). For immunoblotting, the cell lysates were separated by 6% to 15% SDS-polyacrylamide gel electrophoresis (PAGE) and transferred to nitrocellulose membranes. After blocking the membranes with 5% skin milk, the membranes were incubated with primary antibodies overnight at 4° C., and then reacted with horseradish peroxidase (HRP)-conjugated secondary antibodies for 1 hour at room temperature. Bands were visualized using an ECL detection system (GE Healthcare, Chalfont St. Giles, UK).\nThe levels of the HER ligands HB-EGF and heregulinl (heregulinl, NRG1-beta1, NRG1) were measured in cell culture supernatants using ELISA (BosterBio and R&D Systems) according to the manufacturer's protocols.\nIn the case of the R&D Systems kit, an ELISA plate was coated overnight with captured antibodies and blocked with 3% BSA for 1 hour. […]\nIn the case of the BosterBio ELISA kit, the antibody-coated plate was directly filled with samples and standards, and incubated for 90 minutes. […] After this step, the plates for both kits were filled with a substrate solution for 20 minutes, the reaction was stopped using a stop solution for 20 minutes, and the absorbance was measured using a microplate reader at a wavelength of 450 nm. […]"}, "ADAM10 and ADAM17": {"system": "ADAM10 and ADAM17", "settings": "HER2+ metastatic breast cancer patients expressing p95-HER2; trial reported to have failed; cited from earlier work"}}}
{"smiles": "CNC(=O)[C@@H](NC(=O)[C@H](CCCc1ccccc1)[C@H](C)N(O)C=O)C(C)(C)C", "note": "[GI254023, (2R)—N-[(1S)-2,2-dimethyl-1-[(methylamino)carbonyl]-propyl]-2-[(1S)-1-[formyl(hydroxy)amino]ethyl]-5-phenylpentanamide]", "values": [{"measurement": "selectivity to ADAM10 with respect to ADAM17", "setting": "ADAM10", "result": "about 100 fold"}]}
{"smiles": "CCC[C@@H]([C@@H](CC(C)C)C(=O)N[C@@H](CCCCNC(=O)OCc1ccccc1)C(=O)Nc1nccs1)N(O)C=O", "note": "[GW280264, benzyl N-[(5S)-5-[[(2R,3S)-3-(Formylhydroxyamino)-2-(2-methylpropyl)-1-oxohexyl]amino]-6-oxo-6-(2-thiazolylamino)hexyl]-carbamate]", "values": [{"measurement": "anti-proliferative effect of trastuzumab on co-treatment with GW280264", "setting": "BT474 cells", "result": "resistance to trastuzumab is improved"}, {"measurement": "activation of ErbB-PI3K-AKT signaling and secretion of ErbB ligands", "setting": "ErbB-PI3K-AKT signaling", "result": "reversing the activation of ErbB-PI3K-AKT signaling"}]}
{"smiles": "COC(=O)N1CC2(CC2)C[C@H](C(=O)NO)[C@H]1C(=O)N1CCN(c2ccccc2)CC1", "note": "[INCB7839, (6S,7S)-7-[(hydroxyamino)carbonyl]-6-[(4-phenyl-1-piperazinyl)carbonyl]-5-azaspiro[2.5]octane-5-carboxylic acid methyl ester]", "values": [{"measurement": "clinical therapeutic effect in combination with Herceptin", "setting": "ADAM10 and ADAM17", "result": "improves a clinical therapeutic effect of Herceptin"}]}
